According to ChEMBL document CHEMBL1141629, “Kinase-likeness and kinase-privileged fragments: toward virtual polypharmacology” (J Med Chem, 2008):

Tests used:
[1] = molecular target: T1, Serine/threonine-protein kinase PAK 1 (Homo sapiens, UniProt Q13153); assay: Inhibition of PAK1
[2] = molecular target: T2, Serine/threonine-protein kinase Sgk1 (Homo sapiens) (UniProt O00141); assay: Inhibition of SGK1 at 33 uM
T2 sequence (whole entry): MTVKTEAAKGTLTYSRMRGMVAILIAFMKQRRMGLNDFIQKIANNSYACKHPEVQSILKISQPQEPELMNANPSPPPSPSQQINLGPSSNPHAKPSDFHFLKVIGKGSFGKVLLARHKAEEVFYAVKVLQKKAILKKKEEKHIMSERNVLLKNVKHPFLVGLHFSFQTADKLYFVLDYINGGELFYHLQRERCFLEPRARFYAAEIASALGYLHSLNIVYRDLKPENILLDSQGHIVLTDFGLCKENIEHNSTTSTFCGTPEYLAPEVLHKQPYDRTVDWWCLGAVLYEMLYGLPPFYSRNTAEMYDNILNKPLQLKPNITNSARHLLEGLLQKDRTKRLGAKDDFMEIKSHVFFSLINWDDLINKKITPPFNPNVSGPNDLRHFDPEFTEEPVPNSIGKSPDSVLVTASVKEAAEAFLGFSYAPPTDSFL

[3] = molecular target: T1, Serine/threonine-protein kinase PAK 1; assay: Inhibition of PAK1 at 31 uM
[4] = molecular target: Ribosomal protein S6 kinase beta-1 (Homo sapiens) (UniProt P23443); assay: Inhibition of p70S6K at 33 uM
Ribosomal protein S6 kinase beta-1 (Homo sapiens), sequence (P23443 whole entry, looked up): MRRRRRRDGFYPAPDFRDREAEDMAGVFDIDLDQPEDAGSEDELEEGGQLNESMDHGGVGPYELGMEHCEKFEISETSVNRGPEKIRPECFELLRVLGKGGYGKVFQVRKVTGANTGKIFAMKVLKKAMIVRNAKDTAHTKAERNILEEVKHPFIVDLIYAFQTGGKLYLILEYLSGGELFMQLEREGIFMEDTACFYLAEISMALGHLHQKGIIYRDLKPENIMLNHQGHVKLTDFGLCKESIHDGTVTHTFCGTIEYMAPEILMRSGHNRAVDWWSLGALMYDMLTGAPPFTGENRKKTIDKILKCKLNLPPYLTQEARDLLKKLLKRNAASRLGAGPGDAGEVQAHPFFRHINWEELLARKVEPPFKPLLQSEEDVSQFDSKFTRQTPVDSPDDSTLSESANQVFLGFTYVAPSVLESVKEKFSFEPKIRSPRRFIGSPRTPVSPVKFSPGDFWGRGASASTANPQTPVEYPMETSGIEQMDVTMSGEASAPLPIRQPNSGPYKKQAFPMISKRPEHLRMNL

T1 sequence (Q13153 whole entry): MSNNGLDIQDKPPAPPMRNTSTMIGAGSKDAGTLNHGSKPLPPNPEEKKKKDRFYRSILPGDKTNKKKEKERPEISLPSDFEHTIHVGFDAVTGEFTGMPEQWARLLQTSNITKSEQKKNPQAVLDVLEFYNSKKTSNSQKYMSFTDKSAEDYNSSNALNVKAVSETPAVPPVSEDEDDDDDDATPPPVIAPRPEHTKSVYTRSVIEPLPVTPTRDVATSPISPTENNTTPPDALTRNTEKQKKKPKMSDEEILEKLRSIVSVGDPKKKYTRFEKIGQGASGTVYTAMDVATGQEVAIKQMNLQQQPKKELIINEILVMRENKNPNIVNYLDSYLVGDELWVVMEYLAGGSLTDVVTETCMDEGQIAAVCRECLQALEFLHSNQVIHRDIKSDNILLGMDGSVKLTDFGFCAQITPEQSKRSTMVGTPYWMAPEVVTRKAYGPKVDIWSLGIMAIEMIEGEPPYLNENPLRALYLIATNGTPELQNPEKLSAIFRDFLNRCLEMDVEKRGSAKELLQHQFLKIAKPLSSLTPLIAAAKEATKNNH

Row | Compound | IC50 [1] [µM] | also measured
1 | O=C(O)c1cc(/N=N/c2ccc(S(=O)(=O)Nc3ccccn3)cc2)ccc1O |  | inhibition [2]: 70%
2 | Nc1nc2[nH]cnc2c(=S)[nH]1 |  | inhibition [3]: 31%
3 | CCCCCSc1ncnc2nc[nH]c12 | 38 | 
4 | CC(Sc1ncnc2nc[nH]c12)c1ccccc1Cl (configuration not stated) | 23 | 
5 | COc1c2occc2cc2ccc(=O)oc12 |  | inhibition [4]: 64%
6 | Nc1nc(N)c2nc(-c3ccccc3)c(N)nc2n1 |  | inhibition [3]: 100%; inhibition [4]: 95%; inhibition [2]: 94%
7 | c1nc(N2CCOCC2)c2nc[nH]c2n1 | 18 | 

Continued, in another order:

Row | IC50 [1] [µM] | Compound | also measured
8 | 18 | c1nc(NC2CCCC2)c2nc[nH]c2n1 | 
9 | 31 | c1nc2nc(NC3CCCCC3)ncc2[nH]1 | 
10 | 23 | CC1CC(Nc2ncnc3nc[nH]c23)CC(C)(C)C1 (configuration not stated) | 
